Consider four compounds from patent US12035717B1, “2-OXO-2-({2-[(phenylcarbamoyl)oxy]ethyl} amino)ethyl phenylcarbamate as an eco-friendly insecticidal agent against spodoptera littoralis (boisd.)” (priority 2024, dated 2024).

The data set concerns Spodoptera littoralis larvae (laboratory strain of cotton leafworm). The data set can be described thus: Insecticidal leaf dip bioassay on S. littoralis larvae. The settings on record: for Toxicity index % / Toxicity ratio: 72 hours; for Toxicity index %: fenoxycarb = 100; for Toxicity ratio: fenoxycarb's LC50/compound's LC50 * 100; for LC50: after 72 hours of treatment, castor leaf dip.

[1] abbreviates: Spodoptera littoralis, in Gossypium hirsutum, foliar, 72 h, 2nd instar larvae.
[2] abbreviates: Spodoptera littoralis, in Gossypium hirsutum, foliar, 72 h, 4th instar larvae.

Values after ≈ are worked out from the molar mass of the structure shown.

Experimental: Five concentrations (200, 100, 50, 25, 12.5 ppm) were designed for this synthetic compound and the reference fenoxycarb's compound as the dynamic ingredients based on ppm via diluting the commercial formulation.
In this experiment, the synthetic compound was tested for its insecticidal bioactivity using the industry-standard leaf dip bioassay techniques. […] Until usage, the stocks were kept in a refrigerator. The target substance test results were noted & the concentrations needed to destroy 50% (LC50) of S. littoralis larvae were calculated. The target compound was employed in five different concentrations, & 0.1% Tween 80 was employed as a surfactant. Castor bean leaf discs (nine centimeters in diameter) were dipped in the concentration under test for ten seconds, then fed to 2th & 4th larvae, which were roughly the same size and housed in glass jars (five pound). Each action carried out 3 times with ten larvae each. The mortality equalized via Abbott's formula. Calculations of mortality setback line were measurably rummage via probity analysis. Harmfulness index was strongminded via sun equations. The mortality results of larval insect were estimated through employing probit analysis through a statistics (LDP-line) equation which estimate the LC50 values with 95% fiducially limits of lower, upper confidence limit and slope.

What is called LC50 is the concentration lethal to half of the exposed cells or organisms. As for `CCOC(=O)NCCOc1ccc(Oc2ccccc2)cc1` [Fenoxycarb, reference compound], for the setting “2nd instar larvae”, the Toxicity index % was determined as 100%. Further, the Toxicity ratio (4th instar larvae) is listed as 100. Further, the LC50 by setting is: under setting [1], 5.94 µg/mL (≈ 19.7 µM); under setting [2], 59.9 µg/mL (≈ 199 µM).

`O=C(COC(=O)Nc1ccccc1)NCCOC(=O)Nc1ccccc1` [Compound 2, 2-oxo-2-({2-[(phenylcarbamoyl)oxy]ethyl}amino)ethyl phenylcarbamate] came in with a Toxicity index % (2nd instar larvae) of 40.13%. Further, where the note is “4th instar larvae”, the Toxicity ratio turned out to be 73.98 and the LC50 came out at 80.98 µg/mL (≈ 227 µM). This compound yielded an LC50 under setting [1] of 14.8 µg/mL (≈ 41.4 µM). For the same compound, the “Activity against Spodoptera littoralis (in words)” value (summary of Table 1 data) was “active against Spodoptera littoralis”.

Take `O=C(COC(=O)Nc1ccccc1)NCCOC(=O)Nc1ccccc1` [2-oxo-2-({2-[(phenylcarbamoyl)oxy]ethyl}amino)ethyl phenylca] [2-oxo-2-({2-[(phenylcarbamoyl)oxy]ethyl}amino)ethyl phenylcarbamate]: the LC50 result (2nd instar larvae) is listed as “about 14.80 mg/L”.

Turning to `O=C(COC(=O)Nc1ccccc1)NCCOC(=O)Nc1ccccc1` [2-oxo-2-({2-[(phenylcarbamoyl)oxy]ethyl}amino)ethyl phenylcarbamate], under setting [2], the LC50 is around 81 µg/mL (≈ 227 µM).
